Here are results for nine compounds from patent US8163727B2, “Biphenyloxyacetic acid derivatives for the treatment of respiratory disease” (AstraZeneca AB, priority 2004, dated 2012).

One data set has as its target T1, CRTh2 (Homo sapiens, UniProt Q9Y5Y4).
T1 construct: expressed in transfected cells; host or cells: HEK cells (membrane preparation)
T1 sequence (Q9Y5Y4 1-395): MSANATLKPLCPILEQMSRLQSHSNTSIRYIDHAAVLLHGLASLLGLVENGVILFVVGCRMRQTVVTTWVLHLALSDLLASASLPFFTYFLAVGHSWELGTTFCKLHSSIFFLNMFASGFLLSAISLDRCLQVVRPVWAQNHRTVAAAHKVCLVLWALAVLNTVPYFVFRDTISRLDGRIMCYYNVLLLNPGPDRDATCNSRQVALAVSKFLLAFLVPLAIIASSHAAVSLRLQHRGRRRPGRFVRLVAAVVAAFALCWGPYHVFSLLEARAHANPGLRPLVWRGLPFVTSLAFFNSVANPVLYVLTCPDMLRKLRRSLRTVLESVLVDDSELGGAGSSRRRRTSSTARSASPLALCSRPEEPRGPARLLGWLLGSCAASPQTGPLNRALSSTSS
Nature of the data set: Ligand binding assay ([3H]PGD2 SPA on membranes of HEK cells expressing rhCRTh2/Gα16). Particulars: [3H]PGD2 displacement, HEK cell membranes containing CRTh2; read-out: pIC50 value (converted). Here is the method:
[^3H]PGD2 was purchased from Perkin Elmer Life Sciences with a specific activity of 100-210 Ci/mmol. All other chemicals were of analytical grade.
HEK cells expressing rhCRTh2/Gα16 were routinely maintained in DMEM containing 10% Foetal Bovine Serum (HyClone), 1 mg/ml geneticin, 2 mM L-glutamine and 1% non-essential amino acids. For the preparation of membranes, the adherent transfected HEKcells were grown to confluence in two layer tissue culture factories (Fisher, catalogue number TKT-170-070E). Maximal levels of receptor expression were induced by addition of […] sodium butyrate for the last 18 hours of culture. The adherent cells were washed once with phosphate buffered saline (PBS, 50 ml per cell factory) and detached by the addition of 50 ml per cell factory of ice-cold membrane homogenisation buffer [20 mM HEPES (pH 7.4), 0.1 mM dithiothreitol, 1 mM EDTA, 0.1 mM phenyl methyl sulphonyl fluoride and 100 μg/ml bacitracin]. Cells were pelleted by centrifugation at 220×g for 10 minutes at 4° C., re-suspended in half the original volume of fresh membrane homogenisation buffer and disrupted using a Polytron homogeniser for 2×20 second bursts keeping the tube in ice at all times. […] The final pellet was re-suspended in 4 ml of membrane homogenisation buffer per cell factory used and the protein content determined. […]
All assays were performed in Corning clear bottomed, white 96-well NBS plates (Fisher). […] (The optimum coating concentrations were determined for each batch of membranes) The beads were pelleted by centrifugation (800×g for 7 minutes at 4° C.), washed once with assay buffer (50 mM HEPES pH 7.4 containing 5 mM magnesium chloride) and finally re-suspended in assay buffer at a bead concentration of 10 mg/ml. […]
Compounds and DK-PGD2 were dissolved in DMSO and diluted in the same solvent to 100× the required final concentration. […] The assay plate was incubated at room temperature for 2 hours and counted on a Wallac Microbeta liquid scintillation counter (1 minute per well).

SMILES strings stand for the structures.

As a reminder, the melting point is the temperature, or range, at which the solid turns liquid. The compound `CCS(=O)(=O)c1ccc(-c2cc(C(F)(F)F)ccc2OCC(=O)O)cc1C(F)(F)F` [Example 9, [[4′-(Ethylsulfonyl)-3′,5-bis(trifluoromethyl)[1,1′-biphenyl]-2-yl]oxy]acetic acid] returned a melting point of 174 to 175 °C.
On the same count and under the same terms, under `C[C@H](Oc1ccc(Cl)cc1-c1ccc(S(C)(=O)=O)c(C(F)(F)F)c1)C(=O)O` [Example 16, (2S)-2-[[5-Chloro-4′-(methylsulfonyl)-(3′-trifluoromethyl)-[1,1′-biphenyl]-2-yl]oxy]propanoic acid] stands 77 to 79 °C; under `CCS(=O)(=O)c1ccc(-c2cc(C(F)(F)F)ccc2O[C@@H](C)C(=O)O)cc1C(F)(F)F` [Example 10, (2S)-2-[[4′-(Ethylsulfonyl)-3′,5-bis(trifluoromethyl)[1,1′-biphenyl]-2-yl]oxy]propanoic acid], 124 to 126 °C; under `C[C@H](Oc1ccc(Cl)cc1-c1ccc(S(=O)(=O)N2CCOCC2)c(C(F)(F)F)c1)C(=O)O` [Example 12, (2S)-2-[[5-Chloro-4′-(4-morpholinylsulfonyl)-3′-(trifluoromethyl)[1,1′-biphenyl]-2-yl]oxy]propanoic acid], 148 to 149 °C.
Consider `O=C(O)COc1ccc(Cl)cc1-c1ccc(S(=O)(=O)N2CCOCC2)c(C(F)(F)F)c1` [Example 11], for which the melting point is 208 to 209 °C. The IC50 at CRTh2 is 35.5 nM.
`CC(C)S(=O)(=O)c1ccc(-c2cc(C(F)(F)F)ccc2OCC(=O)O)cc1F` [Example 6, [[3′-Fluoro-4′-[(1-methylethyl)sulfonyl]-5-(trifluoromethyl)[1,1′-biphenyl]-2-yl]oxy]acetic acid] yielded a melting point of 170 to 171 °C.
As to `C[C@H](Oc1ccc(Cl)cc1-c1cc(F)c(S(=O)(=O)N2CCOCC2)cc1F)C(=O)O` [Example 5], the IC50 on CRTh2 was 1.78 nM.
`O=C(O)COc1ccc(Cl)cc1-c1ccc(C(=O)N2CCCC2)c(C(F)(F)F)c1` [Example 13, [[5-Chloro-4′(1-pyrrolidinylcarbonyl)-3′-(trifluoromethyl)[1,1′-biphenyl]-2-yl]oxy]-acetic acid] registered a melting point of 197 to 198 °C. For the same compound, the IC50 at CRTh2 is 7.08 nM.
With `C[C@H](Oc1ccc(Cl)cc1-c1ccc(C(=O)N2CCCC2)c(C(F)(F)F)c1)C(=O)O` [Example 14, (2S)-2-[[5-Chloro-4′-(1-pyrrolidinylcarbonyl)-3′-(trifluoromethyl)[1,1′-biphenyl]-2-yl]oxy]propanoic acid], the melting point is 164 to 165 °C.
